From PubChem BioAssay AID220 (DTP/NCI, 2004) come the findings set out here.

For this test, the system named is CD8F1 mice, subcutaneous mammary adenocarcinoma, T/C%. Kind of test: NCI In Vivo Anticancer Drug Screen. Data for tumor model Mammary Adenocarcinoma CD8F1 (subcutaneous) in CD8F1. The settings on record: higher = larger tumour. The method in brief:
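Ratio of treated to vehicle-control outcome, based on either survival or tumor size, in mice bearing transplantable tumors given the test compound.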

The mark [1] stands for this setting: endpoint: median tumor weight (est.), dose: 12.5 mg/kg/injection, schedule: Q07DX005 (ip), vehicle: Klucel (hydroxypropylcellulose) (HPC).
Setting [2] is: endpoint: median tumor weight (est.), dose: 25.0 mg/kg/injection, schedule: Q07DX005 (ip), vehicle: Klucel (hydroxypropylcellulose) (HPC).
Setting [3] is: endpoint: median tumor weight (est.), dose: 50.0 mg/kg/injection, schedule: Q07DX005 (ip), vehicle: Klucel (hydroxypropylcellulose) (HPC).
The mark [4] stands for this setting: endpoint: median tumor weight (est.), dose: 50.0 mg/kg/injection, schedule: Q07DX005 (ip), vehicle: saline.
The mark [5] stands for this setting: endpoint: median tumor weight (est.), dose: 100.0 mg/kg/injection, schedule: Q07DX005 (ip), vehicle: Klucel (hydroxypropylcellulose) (HPC).
[6] abbreviates: endpoint: median tumor weight (est.), dose: 100.0 mg/kg/injection, schedule: Q07DX005 (ip), vehicle: saline.
Where [7] appears, read: endpoint: median tumor weight (est.), dose: 200.0 mg/kg/injection, schedule: Q07DX005 (ip), vehicle: Klucel (hydroxypropylcellulose) (HPC).
Setting [8] is: endpoint: median tumor weight (est.), dose: 200.0 mg/kg/injection, schedule: Q07DX005 (ip), vehicle: saline.
[9] abbreviates: endpoint: median tumor weight (est.), dose: 400.0 mg/kg/injection, schedule: Q07DX005 (ip), vehicle: saline.
Setting [10] is: endpoint: median tumor weight (est.), dose: 25.0 mg/kg/injection, schedule: Q07DX005 (ip), vehicle: suspension in saline.
Where [11] appears, read: endpoint: median tumor weight (est.), dose: 50.0 mg/kg/injection, schedule: Q07DX005 (ip), vehicle: suspension in saline.
[12] abbreviates: endpoint: median tumor weight (est.), dose: 100.0 mg/kg/injection, schedule: Q07DX005 (ip), vehicle: suspension in saline.
[13] abbreviates: endpoint: median tumor weight (est.), dose: 200.0 mg/kg/injection, schedule: Q07DX005 (ip), vehicle: suspension in saline.
Where [14] appears, read: endpoint: median tumor weight (est.), dose: 400.0 mg/kg/injection, schedule: Q07DX005 (ip), vehicle: suspension in saline.
Where [15] appears, read: endpoint: median tumor weight (est.), dose: 800.0 mg/kg/injection, schedule: Q07DX005 (ip), vehicle: Klucel (hydroxypropylcellulose) (HPC).

The structures appear in SMILES notation. Values joined by “and” are separate entries in the source; they are usually repeats but may differ in a detail not shown here. Identical values can stand only once. Results filed as inconclusive are left out.

For `COC1C(/C=C/C(C)=O)OC2OC(C)(C)OC21` (configuration not stated), the T/C is, setting by setting: under setting [1], 165 % of control; (endpoint: median tumor weight (est.), dose: 12.5 mg/kg/injection, schedule: Q07DX005 (ip), vehicle: saline) 76 % of control; under setting [2], 99 % of control; (endpoint: median tumor weight (est.), dose: 25.0 mg/kg/injection, schedule: Q07DX005 (ip), vehicle: saline) 83 % of control; under setting [3], 91 % of control; under setting [4], 38 % of control. The T/C is 96 % of control under setting [5]; 101 % of control under setting [6]; 71 % of control under setting [7]; 101 % of control under setting [8]; 84 % of control under setting [9].
On to `CC(=O)OCC1OC(n2ccc(N)nc2=O)C(OC(C)=O)C1OC(C)=O` (configuration not stated), for which the T/C by setting is: under setting [10], 159 % of control; under setting [11], 70 % of control; under setting [12], 87 % of control; under setting [13], 88 % of control; under setting [14], 96 % of control; (endpoint: median tumor weight (est.), dose: 800.0 mg/kg/injection, schedule: Q07DX005 (ip), vehicle: suspension in saline) 6 % of control.
As to `O=C1C(=O)c2cccnc2-c2ncccc21`, the T/C is, setting by setting: (endpoint: median tumor weight change, dose: 1.56 mg/kg/injection, schedule: Q01DX001 (ip), vehicle: Klucel (hydroxypropylcellulose) (HPC)) 107 % of control; (endpoint: median tumor weight change, dose: 3.12 mg/kg/injection, schedule: Q01DX001 (ip), vehicle: Klucel (hydroxypropylcellulose) (HPC)) 117 % of control.
With `CC(C)CCC[C@@H](C)[C@H]1CC[C@H]2[C@@H]3CC=C4C[C@@H](OC(=O)Cc5ccc(N(CCCl)CCCl)cc5)CC[C@]4(C)[C@H]3CC[C@]12C`, the T/C under setting [2] was 91 % of control; the T/C under setting [3] was 73 % of control; the T/C under setting [5] is 123 % of control; the T/C under setting [7] was 57 % of control; the T/C (endpoint: median tumor weight (est.), dose: 400.0 mg/kg/injection, schedule: Q07DX005 (ip), vehicle: Klucel (hydroxypropylcellulose) (HPC)) is 102 % of control; the T/C under setting [15] is 36 % of control.
With `CC1=C(C)C(=O)O[C@@H]([C@](C)(O)[C@]2(O)CC[C@@]3(O)[C@@H]4C[C@H]5O[C@]56CC=CC(=O)[C@]6(C)[C@H]4CC[C@]23C)C1`, the T/C by setting is: (endpoint: median tumor weight change, dose: 25.0 mg/kg/injection, schedule: Q01DX001 (ip), vehicle: saline) 91 % of control; (endpoint: median tumor weight change, dose: 50.0 mg/kg/injection, schedule: Q01DX001 (ip), vehicle: saline) 98 % of control; (endpoint: median tumor weight change, dose: 200.0 mg/kg/injection, schedule: Q01DX001 (ip), vehicle: saline) 69 % of control; (endpoint: median tumor weight change, dose: 400.0 mg/kg/injection, schedule: Q01DX001 (ip), vehicle: saline) 82 % of control.
In the case of `COC(=O)C[C@](O)(CCCC(C)(C)O)C(=O)O[C@@H]1C(OC)=C[C@]23CCCN2CCc2cc4c(cc2[C@H]13)OCO4`, the T/C is 59 % of control (endpoint: median tumor weight (est.), dose: 0.25 mg/kg/injection, schedule: Q07DX005 (ip), vehicle: saline); 57 % of control and 60 % of control (endpoint: median tumor weight (est.), dose: 0.5 mg/kg/injection, schedule: Q07DX005 (ip), vehicle: saline); 61 % of control and 78 % of control (endpoint: median tumor weight (est.), dose: 1.0 mg/kg/injection, schedule: Q07DX005 (ip), vehicle: saline); 14 % of control and 21 % of control (endpoint: median tumor weight (est.), dose: 2.0 mg/kg/injection, schedule: Q07DX005 (ip), vehicle: saline); 7 % of control (endpoint: median tumor weight (est.), dose: 4.0 mg/kg/injection, schedule: Q07DX005 (ip), vehicle: saline).
`CN(C1=NS(=O)(=O)N=C(N(C)c2ccccc2)O1)c1ccccc1`: the T/C was 86 % of control under setting [1]; 88 % of control under setting [2]; 90 % of control under setting [3]; 123 % of control and 115 % of control under setting [5]; 86 % of control and 111 % of control under setting [7]; 85 % of control under setting [15]. Further, the T/C is 76 % of control (endpoint: median tumor weight change, dose: 50.0 mg/kg/injection, schedule: Q01DX001 (ip), vehicle: Klucel (hydroxypropylcellulose) (HPC)); 71 % of control and 75 % of control and 91 % of control (endpoint: median tumor weight change, dose: 100.0 mg/kg/injection, schedule: Q01DX001 (ip), vehicle: Klucel (hydroxypropylcellulose) (HPC)); 47 % of control and 64 % of control and 69 % of control (endpoint: median tumor weight change, dose: 800.0 mg/kg/injection, schedule: Q01DX001 (ip), vehicle: Klucel (hydroxypropylcellulose) (HPC)); 70 % of control (endpoint: median tumor weight change, dose: 1600.0 mg/kg/injection, schedule: Q01DX001 (ip), vehicle: Klucel (hydroxypropylcellulose) (HPC)).
As to `CC1=C2CC(C)(C)/C=C\C(=O)/C(C)=C\C3=C[C@H](C)C[C@]3(O2)C1=O`, the T/C by setting is: (endpoint: median tumor weight (est.), dose: 1.5 mg/kg/injection, schedule: Q07DX005 (ip), vehicle: Klucel (hydroxypropylcellulose) (HPC)) 78 % of control; (endpoint: median tumor weight (est.), dose: 1.5 mg/kg/injection, schedule: Q07DX005 (ip), vehicle: saline) 94 % of control; (endpoint: median tumor weight (est.), dose: 3.0 mg/kg/injection, schedule: Q07DX005 (ip), vehicle: Klucel (hydroxypropylcellulose) (HPC)) 212 % of control; (endpoint: median tumor weight (est.), dose: 6.0 mg/kg/injection, schedule: Q07DX005 (ip), vehicle: Klucel (hydroxypropylcellulose) (HPC)) 174 % of control; (endpoint: median tumor weight (est.), dose: 6.0 mg/kg/injection, schedule: Q07DX005 (ip), vehicle: saline) 112 % of control; (endpoint: median tumor weight (est.), dose: 12.0 mg/kg/injection, schedule: Q07DX005 (ip), vehicle: Klucel (hydroxypropylcellulose) (HPC)) 80 % of control. The T/C (endpoint: median tumor weight (est.), dose: 12.0 mg/kg/injection, schedule: Q07DX005 (ip), vehicle: saline) was 88 % of control; the T/C (endpoint: median tumor weight (est.), dose: 24.0 mg/kg/injection, schedule: Q07DX005 (ip), vehicle: Klucel (hydroxypropylcellulose) (HPC)) was 466 % of control; the T/C (endpoint: median tumor weight (est.), dose: 48.0 mg/kg/injection, schedule: Q07DX005 (ip), vehicle: saline) was 44 % of control.
Take `C=CC(=O)NCNC(=O)C=C`: the T/C (endpoint: median tumor weight (est.), dose: 12.5 mg/kg/injection, schedule: Q07DX005 (ip), vehicle: suspension in saline) is 104 % of control; the T/C under setting [10] was 85 % of control; the T/C under setting [11] is 80 % of control; the T/C under setting [12] is 43 % of control; the T/C under setting [13] was 32 % of control; the T/C under setting [14] was 9 % of control. In addition, the T/C (endpoint: median tumor weight change, dose: 62.5 mg/kg/injection, schedule: Q01DX001 (ip), vehicle: saline) is 78 % of control; the T/C (endpoint: median tumor weight change, dose: 62.5 mg/kg/injection, schedule: Q01DX001 (ip), vehicle: suspension in saline) was 90 % of control; the T/C (endpoint: median tumor weight change, dose: 72.0 mg/kg/injection, schedule: Q01DX001 (ip), vehicle: saline) is 105 % of control; the T/C (endpoint: median tumor weight change, dose: 109.0 mg/kg/injection, schedule: Q01DX001 (ip), vehicle: saline) was 150 % of control; the T/C (endpoint: median tumor weight change, dose: 125.0 mg/kg/injection, schedule: Q01DX001 (ip), vehicle: saline) was 46 % of control; the T/C (endpoint: median tumor weight change, dose: 125.0 mg/kg/injection, schedule: Q01DX001 (ip), vehicle: suspension in saline) is 42 % of control. For the same molecule, the T/C is 71 % of control (endpoint: median tumor weight change, dose: 165.0 mg/kg/injection, schedule: Q01DX001 (ip), vehicle: saline); 50 % of control and 74 % of control (endpoint: median tumor weight change, dose: 250.0 mg/kg/injection, schedule: Q01DX001 (ip), vehicle: saline); -28 % of control (endpoint: median tumor weight change, dose: 250.0 mg/kg/injection, schedule: Q01DX001 (ip), vehicle: suspension in saline); 62 % of control (endpoint: median tumor weight change, dose: 379.0 mg/kg/injection, schedule: Q01DX001 (ip), vehicle: saline).
Regarding `CC(=O)NC(C=O)OCC=O` (configuration not stated), the T/C runs as follows: (endpoint: median tumor weight change, dose: 62.5 mg/kg/injection, schedule: Q01DX001 (ip), vehicle: water) 85 % of control; (endpoint: median tumor weight change, dose: 125.0 mg/kg/injection, schedule: Q01DX001 (ip), vehicle: water) 118 % of control; (endpoint: median tumor weight change, dose: 250.0 mg/kg/injection, schedule: Q01DX001 (ip), vehicle: water) 118 % of control; (endpoint: median tumor weight change, dose: 500.0 mg/kg/injection, schedule: Q01DX001 (ip), vehicle: water) 34 % of control.
In the case of `Cc1ccccc1N(CC1CO1)CC1CO1` (configuration not stated), the T/C was 74 % of control under setting [4], 79 % of control under setting [6], 105 % of control under setting [8] and 63 % of control under setting [9].
